Assay results from patent US8927717B1, “Thiochromeno[2,3-c]quinolin-12-one derivatives, preparation method and application thereof” (National Defense Medical Center, priority 2014, dated 2015).

Key:
CCRF-CEM = format: cell-based; conditions: Leukemia; 10^−5 molar; 48 hours; SRB
HL-60(TB) = format: cell-based; conditions: Leukemia; 10^−5 molar; 48 hours; SRB
K-562 = format: cell-based; conditions: Leukemia; 10^−5 molar; 48 hours; SRB
MOLT-4 = format: cell-based; conditions: Leukemia; 10^−5 molar; 48 hours; SRB
RPMI-8226 = format: cell-based; conditions: Leukemia; 10^−5 molar; 48 hours; SRB
SR = format: cell-based; conditions: Leukemia; 10^−5 molar; 48 hours; SRB
A549/ATCC = format: cell-based; conditions: Non-small cell lung cancer; 10^−5 molar; 48 hours; SRB
HOP-62 = format: cell-based; conditions: Non-small cell lung cancer; 10^−5 molar; 48 hours; SRB
HOP-92 = format: cell-based; conditions: Non-small cell lung cancer; 10^−5 molar; 48 hours; SRB
NCI-H226 = format: cell-based; conditions: Non-small cell lung cancer; 10^−5 molar; 48 hours; SRB
NCI-H23 = format: cell-based; conditions: Non-small cell lung cancer; 10^−5 molar; 48 hours; SRB
NCI-H460 = format: cell-based; conditions: Non-small cell lung cancer; 10^−5 molar; 48 hours; SRB
NCI-H522 = format: cell-based; conditions: Non-small cell lung cancer; 10^−5 molar; 48 hours; SRB
COLO 205 = format: cell-based; conditions: Colon cancer; 10^−5 molar; 48 hours; SRB
HCC-2998 = format: cell-based; conditions: Colon cancer; 10^−5 molar; 48 hours; SRB
HCT-116 = format: cell-based; conditions: Colon cancer; 10^−5 molar; 48 hours; SRB
HCT-15 = format: cell-based; conditions: Colon cancer; 10^−5 molar; 48 hours; SRB
HT29 = format: cell-based; conditions: Colon cancer; 10^−5 molar; 48 hours; SRB
KM12 = experiment: cells; format: cell-based; conditions: Colon cancer; 10^−5 molar; 48 hours; SRB
SW-620 = format: cell-based; conditions: Colon cancer; 10^−5 molar; 48 hours; SRB
SF-268 = format: cell-based; conditions: CNS cancer; 10^−5 molar; 48 hours; SRB
SF-295 = format: cell-based; conditions: CNS cancer; 10^−5 molar; 48 hours; SRB
SF-539 = format: cell-based; conditions: CNS cancer; 10^−5 molar; 48 hours; SRB
SNB-19 = format: cell-based; conditions: CNS cancer; 10^−5 molar; 48 hours; SRB
SNB-75 = format: cell-based; conditions: CNS cancer; 10^−5 molar; 48 hours; SRB
U251 = format: cell-based; conditions: CNS cancer; 10^−5 molar; 48 hours; SRB
LOX IMVI = format: cell-based; conditions: Melanoma; 10^−5 molar; 48 hours; SRB
MALME-3M = format: cell-based; conditions: Melanoma; 10^−5 molar; 48 hours; SRB
M14 = format: cell-based; conditions: Melanoma; 10^−5 molar; 48 hours; SRB
MDA-MB-435 = format: cell-based; conditions: Melanoma; 10^−5 molar; 48 hours; SRB
SK-MEL-2 = format: cell-based; conditions: Melanoma; 10^−5 molar; 48 hours; SRB
SK-MEL-28 = format: cell-based; conditions: Melanoma; 10^−5 molar; 48 hours; SRB
SK-MEL-5 = format: cell-based; conditions: Melanoma; 10^−5 molar; 48 hours; SRB
UACC-257 = format: cell-based; conditions: Melanoma; 10^−5 molar; 48 hours; SRB
UACC-62 = format: cell-based; conditions: Melanoma; 10^−5 molar; 48 hours; SRB
IGROV1 = format: cell-based; conditions: Ovarian cancer; 10^−5 molar; 48 hours; SRB
OVCAR-3 = format: cell-based; conditions: Ovarian cancer; 10^−5 molar; 48 hours; SRB
OVCAR-4 = format: cell-based; conditions: Ovarian cancer; 10^−5 molar; 48 hours; SRB
OVCAR-5 = format: cell-based; conditions: Ovarian cancer; 10^−5 molar; 48 hours; SRB
OVCAR-8 = format: cell-based; conditions: Ovarian cancer; 10^−5 molar; 48 hours; SRB
NCI/ADR-RES = format: cell-based; conditions: Ovarian cancer; 10^−5 molar; 48 hours; SRB
SK-OV-3 = format: cell-based; conditions: Ovarian cancer; 10^−5 molar; 48 hours; SRB
786-0 = format: cell-based; conditions: Renal cancer; 10^−5 molar; 48 hours; SRB
A498 = format: cell-based; conditions: Renal cancer; 10^−5 molar; 48 hours; SRB
ACHN = format: cell-based; conditions: Renal cancer; 10^−5 molar; 48 hours; SRB
CAKI-1 = format: cell-based; conditions: Renal cancer; 10^−5 molar; 48 hours; SRB
RXF 393 = format: cell-based; conditions: Renal cancer; 10^−5 molar; 48 hours; SRB
SN12C = format: cell-based; conditions: Renal cancer; 10^−5 molar; 48 hours; SRB
TK-10 = format: cell-based; conditions: Renal cancer; 10^−5 molar; 48 hours; SRB
UO-31 = format: cell-based; conditions: Renal cancer; 10^−5 molar; 48 hours; SRB
PC-3 = format: cell-based; conditions: Prostate cancer; 10^−5 molar; 48 hours; SRB
DU-145 = format: cell-based; conditions: Prostate cancer; 10^−5 molar; 48 hours; SRB
MCF7 = format: cell-based; conditions: Breast cancer; 10^−5 molar; 48 hours; SRB
MDA-MB-231/ATCC = format: cell-based; conditions: Breast cancer; 10^−5 molar; 48 hours; SRB
HS 578T = format: cell-based; conditions: Breast cancer; 10^−5 molar; 48 hours; SRB
BT-549 = format: cell-based; conditions: Breast cancer; 10^−5 molar; 48 hours; SRB
T-47D = format: cell-based; conditions: Breast cancer; 10^−5 molar; 48 hours; SRB
MDA-MB-486 = format: cell-based; conditions: Breast cancer; 10^−5 molar; 48 hours; SRB
60 cancer cell lines = experiment: NCI 60-cell screen, SRB, whole panel (mean, delta, range); format: cell-based; conditions: 10^−5 molar, 48 hours, SRB
[1] = target: T1, TOP II (Topoisomerase II) (Homo sapiens, UniProt P11388); experiment: TOP II-catalyzed relaxation of plasmid DNA assay; format: biochemical
T1 construct: purchased TopoGEN TG-2000H-1
T1 sequence (P11388 whole entry): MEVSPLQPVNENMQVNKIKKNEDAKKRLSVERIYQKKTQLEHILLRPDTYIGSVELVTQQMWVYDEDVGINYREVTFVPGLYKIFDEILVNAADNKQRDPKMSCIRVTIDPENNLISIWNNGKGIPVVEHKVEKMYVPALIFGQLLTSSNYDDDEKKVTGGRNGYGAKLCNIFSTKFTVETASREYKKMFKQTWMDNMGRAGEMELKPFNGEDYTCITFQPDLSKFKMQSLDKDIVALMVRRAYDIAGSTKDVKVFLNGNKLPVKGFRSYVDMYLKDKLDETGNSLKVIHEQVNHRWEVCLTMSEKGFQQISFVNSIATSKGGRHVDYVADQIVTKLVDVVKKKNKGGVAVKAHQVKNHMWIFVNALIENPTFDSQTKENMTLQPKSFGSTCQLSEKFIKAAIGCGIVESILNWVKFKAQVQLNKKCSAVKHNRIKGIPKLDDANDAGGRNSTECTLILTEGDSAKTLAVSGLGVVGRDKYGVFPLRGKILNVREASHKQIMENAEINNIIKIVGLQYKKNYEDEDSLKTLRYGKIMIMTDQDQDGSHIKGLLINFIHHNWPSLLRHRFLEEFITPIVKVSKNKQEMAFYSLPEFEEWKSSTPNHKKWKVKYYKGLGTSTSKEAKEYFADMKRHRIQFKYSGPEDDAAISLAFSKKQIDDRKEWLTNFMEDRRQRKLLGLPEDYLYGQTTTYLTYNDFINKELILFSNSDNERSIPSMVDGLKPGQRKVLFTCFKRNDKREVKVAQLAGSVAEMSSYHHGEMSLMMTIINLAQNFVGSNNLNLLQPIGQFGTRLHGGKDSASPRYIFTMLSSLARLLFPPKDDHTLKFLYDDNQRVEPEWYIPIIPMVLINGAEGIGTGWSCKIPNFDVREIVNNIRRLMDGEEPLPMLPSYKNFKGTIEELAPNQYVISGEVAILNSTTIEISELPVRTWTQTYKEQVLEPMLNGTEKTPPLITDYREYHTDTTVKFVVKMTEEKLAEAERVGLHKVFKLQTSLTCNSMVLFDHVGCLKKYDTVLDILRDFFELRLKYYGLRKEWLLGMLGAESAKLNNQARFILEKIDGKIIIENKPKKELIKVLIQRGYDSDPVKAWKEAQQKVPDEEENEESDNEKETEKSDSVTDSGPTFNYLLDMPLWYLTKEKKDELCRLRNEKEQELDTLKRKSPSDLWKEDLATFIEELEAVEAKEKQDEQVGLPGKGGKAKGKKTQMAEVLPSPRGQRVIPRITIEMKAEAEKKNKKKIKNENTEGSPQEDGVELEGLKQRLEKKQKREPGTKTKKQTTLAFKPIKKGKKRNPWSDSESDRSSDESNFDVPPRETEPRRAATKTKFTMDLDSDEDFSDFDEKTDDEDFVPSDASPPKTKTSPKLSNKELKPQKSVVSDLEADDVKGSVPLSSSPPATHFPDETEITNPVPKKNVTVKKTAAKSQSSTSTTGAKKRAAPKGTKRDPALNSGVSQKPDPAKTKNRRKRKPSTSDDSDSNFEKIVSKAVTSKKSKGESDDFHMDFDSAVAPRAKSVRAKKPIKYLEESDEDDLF
Description: We also performed TOP II-catalyzed relaxation of plasmid DNA assays (FIG. 5-7) to evaluate if compounds could inhibit TOP II. […] The IC50 value of compounds 7, N7, N8, N14, N15, N18, and N19 were about 10, 10, 1, 10, 5, 1, and 1 μM, respectively (detect by TopoGEN TG2005H, TG-2000H-1).

In the case of O=c1c2cc(Cl)ccc2sc2c(N3CCN(Cc4ccccc4)CC3)nc3ccccc3c12 [Compound 11, 6-(4-Benzylpiperazin-1-yl)-10-chloro-12H-thiochromeno[2,3-c]quinolin-12-one], the “Growth percent CCRF-CEM” value (CCRF-CEM) is reported as 95.42%, the “Growth percent HL-60(TB)” value (HL-60(TB)) is reported as 100.96% and the “Growth percent K-562” value (K-562) is reported as 87.84%. For the same molecule, the “Growth percent MOLT-4” value (MOLT-4) was 90.91%, the “Growth percent RPMI-8226” value (RPMI-8226) was 96.63% and the “Growth percent SR” value (SR) was 85.15%. The “Growth percent A549/ATCC” value (A549/ATCC) was 106.37%, the “Growth percent HOP-62” value (HOP-62) was 87.72% and the “Growth percent HOP-92” value (HOP-92) was 70.17%. For the same molecule, the “Growth percent NCI-H226” value (NCI-H226) was 88.98%, the “Growth percent NCI-H23” value (NCI-H23) was 89.94% and the “Growth percent NCI-H460” value (NCI-H460) was 95.57%. For the same molecule, the “Growth percent NCI-H522” value (NCI-H522) was 96.69%, the “Growth percent COLO 205” value (COLO 205) was 105.64% and the “Growth percent HCC-2998” value (HCC-2998) was 99.32%. The “Growth percent HCT-116” value (HCT-116) was 98.59%, the “Growth percent HCT-15” value (HCT-15) was 94.51% and the “Growth percent HT29” value (HT29) was 102.71%. The “Growth percent KM12” value (KM12) was 107.75%, the “Growth percent SW-620” value (SW-620) was 93.08% and the “Growth percent SF-268” value (SF-268) was 100.42%. The “Growth percent SF-295” value (SF-295) was 94.34%, the “Growth percent SF-539” value (SF-539) was 108.56% and the “Growth percent SNB-19” value (SNB-19) was 95.52%. For the same molecule, the “Growth percent SNB-75” value (SNB-75) was 82.62%, the “Growth percent U251” value (U251) was 96.69% and the “Growth percent LOX IMVI” value (LOX IMVI) was 94.22%. For the same molecule, the “Growth percent MALME-3M” value (MALME-3M) was 112.36%, the “Growth percent M14” value (M14) was 93.00% and the “Growth percent MDA-MB-435” value (MDA-MB-435) was 96.99%. The “Growth percent SK-MEL-2” value (SK-MEL-2) was 107.37%, the “Growth percent SK-MEL-28” value (SK-MEL-28) was 104.19% and the “Growth percent SK-MEL-5” value (SK-MEL-5) was 98.38%. For the same molecule, the “Growth percent UACC-257” value (UACC-257) was 95.39%, the “Growth percent UACC-62” value (UACC-62) was 96.00% and the “Growth percent IGROV1” value (IGROV1) was 93.49%. The “Growth percent OVCAR-3” value (OVCAR-3) was 101.69%, the “Growth percent OVCAR-4” value (OVCAR-4) was 102.43% and the “Growth percent OVCAR-5” value (OVCAR-5) was 111.92%. For the same molecule, the “Growth percent OVCAR-8” value (OVCAR-8) was 98.54%, the “Growth percent NCI/ADR-RES” value (NCI/ADR-RES) was 98.31% and the “Growth percent SK-OV-3” value (SK-OV-3) was 94.79%. The “Growth percent 786-0” value (786-0) was 105.57%, the “Growth percent A498” value (A498) was 94.17% and the “Growth percent ACHN” value (ACHN) was 96.39%. The “Growth percent CAKI-1” value (CAKI-1) was 94.03%, the “Growth percent RXF 393” value (RXF 393) was 100.71% and the “Growth percent SN12C” value (SN12C) was 97.70%. The “Growth percent TK-10” value (TK-10) was 124.99%, the “Growth percent UO-31” value (UO-31) was 64.91% and the “Growth percent PC-3” value (PC-3) was 89.12%. For the same molecule, the “Growth percent DU-145” value (DU-145) was 111.61%, the “Growth percent MCF7 (Table 2: MCF)” value (MCF7) was 68.32% and the “Growth percent MDA-MB-231/ATCC” value (MDA-MB-231/ATCC) was 89.11%. For the same molecule, the “Growth percent HS 578T” value (HS 578T) was 76.42%, the “Growth percent BT-549” value (BT-549) was 114.05% and the “Growth percent T-47D” value (T-47D) was 89.22%. For the same molecule, the “Growth percent MDA-MB-486” value (MDA-MB-486) was 98.53%, the “Growth percent, Delta” value (60 cancer cell lines; delta over the cell panel) was 31.28% and the “Growth percent, Mean” value (60 cancer cell lines; mean over the cell panel) was 96.19%. The “Growth percent, Range” value (60 cancer cell lines; range over the cell panel) was 60.08% and the melting point was 191 to 193 °C.

In the case of CCN(CC)CCNc1nc2ccccc2c2c(=O)c3cc(Cl)ccc3sc12 [Compound N8, 10-Chloro-6-((2-(diethylamino)ethyl)amino)-12H-thiochromeno[2,3-c]quinolin-12-one], the IC50 ([1]; five different concentrations, TopoGEN TG2005H, TG-2000H-1, read-out: IC50 value, TOP II mediated supercoiled DNA relaxation) is reported as roughly 1000 nM, the “inhibitory effect in TOP II relaxation assay compared with VP-16” value ([1]; primary assay at 25 and/or 50 μM) is reported as “more potent inhibitory effects than the positive agent VP-16” and the melting point is reported as 152 to 153 °C.
